The results in this text go back to ChEMBL document CHEMBL4346720, “Review of the molecular mechanisms of Ganoderma lucidum triterpenoids: Ganoderic acids A, C2, D, F, DM, X and Y” (Eur J Med Chem, 2019).

Values after ≈ are worked out from the molar mass of the structure shown.

The subject of one data set is HepG2. The experiment in a line: Cytotoxicity against human HepG2 cells assessed as reduction in cell viability after 24 hrs by MTT assay. The following applies: HepG2, 24 h. The format is functional. (In general: Tetrazolium assays rely on reduction of a dye to a coloured formazan, in cell work by metabolically active cells.)
Data set [1] concerns the target Signal transducer and activator of transcription 3 (Homo sapiens) (UniProt P40763). The experiment in a line: Inhibition of IL-6-stimulated STAT3 (unknown origin) phosphorylation preincubated for 4 hrs followed by IL-6 addition measured after 24 hrs by luciferase reporter gene assay. (A reporter such as luciferase makes a cellular process visible.)
The next data set concerns RAW264.7. The experiment in a line: Cytotoxicity against mouse RAW264.7 cells assessed as reduction in cell viability by WST-1 assay. The data set is classed as functional.
Data set [2] can be described thus: Inhibition of RANKL/tumour necrosis factor alpha-induced formation of osteoclasts (unknown origin) by tartrate-resistant acid phosphatase staining based assay. The format is functional.
The test system of another data set is Osteoclast. The data set is described as follows: Inhibition of calcitriol-induced formation of Sprague-Dawley rat osteoclasts by […]. The data set is classed as functional.
Data set [3] in a line: Inhibition of human T9A4 cells assessed as reduction in cholesterol synthesis after 30 mins in presence of [14C]acetate, [14C]mevanolate, 24,25-dihydro-[24,25-3H2]lanosterol, [3-3H]lathosterol by acetate incorporation assay. The format is functional.
A short description of data set [4]: Tmax in Sprague-Dawley rat at 300 mg/kg, po by LC-ESI-IT-TOF/MS analysis. The format is ADME, organism-based. The settings on record: in vivo.
The next data set has as its system HeLa. The experiment in a line: Induction of apoptosis in human HeLa cells. The format is functional, cell-based.
A further data set addresses T1, DNA topoisomerase 1 (Homo sapiens, UniProt P11387).
T1 sequence (P11387 whole entry): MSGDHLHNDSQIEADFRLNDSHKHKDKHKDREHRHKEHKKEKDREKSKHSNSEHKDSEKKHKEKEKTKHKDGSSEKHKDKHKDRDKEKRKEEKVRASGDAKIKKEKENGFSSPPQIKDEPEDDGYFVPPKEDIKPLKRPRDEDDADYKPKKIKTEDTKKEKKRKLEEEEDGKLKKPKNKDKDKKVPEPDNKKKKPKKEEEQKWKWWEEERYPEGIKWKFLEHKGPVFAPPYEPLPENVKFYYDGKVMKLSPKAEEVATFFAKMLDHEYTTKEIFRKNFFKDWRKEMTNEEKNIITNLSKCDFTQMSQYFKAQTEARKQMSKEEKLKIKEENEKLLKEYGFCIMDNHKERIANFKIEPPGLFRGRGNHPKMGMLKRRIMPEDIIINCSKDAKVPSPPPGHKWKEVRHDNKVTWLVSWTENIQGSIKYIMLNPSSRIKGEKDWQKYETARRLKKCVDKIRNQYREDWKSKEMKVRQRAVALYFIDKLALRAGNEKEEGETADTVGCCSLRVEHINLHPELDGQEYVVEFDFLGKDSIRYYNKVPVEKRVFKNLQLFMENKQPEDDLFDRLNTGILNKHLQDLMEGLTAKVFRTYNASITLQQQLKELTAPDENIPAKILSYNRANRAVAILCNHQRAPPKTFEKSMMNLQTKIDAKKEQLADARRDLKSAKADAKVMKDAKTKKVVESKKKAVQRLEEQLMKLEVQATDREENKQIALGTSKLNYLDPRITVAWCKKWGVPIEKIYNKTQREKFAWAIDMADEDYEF
The experiment in a line: Inhibition of recombinant human topoisomerase-1-mediated relaxation of supercoiled pRYG DNA after 30 mins by ethidium bromide staining based assay.

Sequence of Signal transducer and activator of transcription 3 (Homo sapiens) (P40763 whole entry): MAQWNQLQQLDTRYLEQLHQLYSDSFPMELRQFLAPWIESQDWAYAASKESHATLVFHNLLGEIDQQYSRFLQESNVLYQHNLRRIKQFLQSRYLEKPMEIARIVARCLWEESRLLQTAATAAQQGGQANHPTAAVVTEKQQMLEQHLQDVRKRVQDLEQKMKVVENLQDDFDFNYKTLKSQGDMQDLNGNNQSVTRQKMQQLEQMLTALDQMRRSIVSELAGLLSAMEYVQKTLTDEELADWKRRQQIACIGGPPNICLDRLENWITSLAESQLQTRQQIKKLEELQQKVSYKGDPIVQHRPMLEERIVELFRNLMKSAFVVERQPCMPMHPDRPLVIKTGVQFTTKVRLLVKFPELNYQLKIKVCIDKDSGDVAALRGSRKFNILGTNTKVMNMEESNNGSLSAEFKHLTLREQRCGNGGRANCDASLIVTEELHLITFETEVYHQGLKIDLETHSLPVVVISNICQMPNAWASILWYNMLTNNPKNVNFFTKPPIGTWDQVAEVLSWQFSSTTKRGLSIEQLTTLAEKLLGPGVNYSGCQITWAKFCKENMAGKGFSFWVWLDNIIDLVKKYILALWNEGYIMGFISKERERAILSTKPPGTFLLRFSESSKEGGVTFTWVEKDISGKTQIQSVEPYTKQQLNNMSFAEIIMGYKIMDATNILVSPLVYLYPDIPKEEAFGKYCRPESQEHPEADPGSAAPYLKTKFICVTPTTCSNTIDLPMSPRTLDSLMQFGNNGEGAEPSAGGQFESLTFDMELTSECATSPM

On to `C[C@H](CC(=O)C[C@@H](C)[C@H]1C[C@H](O)[C@@]2(C)C3=C(C(=O)C[C@]12C)[C@@]1(C)CCC(=O)C(C)(C)[C@@H]1C[C@@H]3O)C(=O)O` [GANODERIC ACID A], for which, in the data set on HepG2, the CC50 (usually the concentration at which the toxic effect on the cells reaches its halfway point) came to 80 µM. Moreover, the MIC in data set [1] stood at 60 µM (≈ 31 µg/mL).

In the case of `C/C(=C/CC[C@@H](C)[C@H]1CC[C@@]2(C)C3=C(CC[C@]12C)[C@@]1(C)CCC(=O)C(C)(C)[C@@H]1CC3=O)C(=O)O` [GANODERIC ACID DM], in the data set on RAW264.7, the CC50 was found to be 65 µM. In [2], the IC50 (as a rule, the concentration at which inhibition is half-maximal) amounted to 30 µM. Also, the MIC in the data set on Osteoclast was found to be 10 µg/mL (≈ 21.3 µM).

As for `C/C(=C\CC[C@@H](C)[C@H]1CC[C@@]2(C)C3=CC[C@H]4C(C)(C)[C@@H](O)CC[C@]4(C)C3=CC[C@]12C)C(=O)O` [GANODERIC ACID Y], the IC50 in [3] came to 1.4 µM.

In the case of `C[C@H](CC(=O)C[C@@H](C)[C@H]1C[C@H](O)[C@@]2(C)C3=C(C(=O)C[C@]12C)[C@@]1(C)CC[C@H](O)C(C)(C)[C@@H]1C[C@@H]3O)C(=O)O` [GANODERIC ACID C2], the Tmax – broadly, the time at which the peak concentration occurs – in [4] was 3.9 min.

In the case of `C[C@H](CC(=O)C[C@H](C)C(=O)O)[C@H]1CC(=O)[C@@]2(C)C3=C(C(=O)C[C@]12C)[C@@]1(C)CCC(=O)C(C)(C)[C@@H]1C[C@@H]3O`, the IC50 came to 17.3 µM in the data set on HeLa and 400 µM in data set [2]. Besides, the CC50 in the data set with RAW264.7 was above 400 µM.

As to `CC(=O)O[C@H]1C[C@H]([C@H](C)CC/C=C(\C)C(=O)O)[C@@]2(C)CC=C3C(=CC[C@H]4C(C)(C)[C@H](O)CC[C@]34C)[C@]12C`, at DNA topoisomerase 1, the IC50 was 25 µM.
